Measured values from ChEMBL document CHEMBL3046839, “Six insecticidal isoryanodane diterpenoids from the bark and twigs of Itoa orientalis” (2008).
≈ marks a conversion by molar mass, not a printed value. Calls of active or inactive are those of the source. The calls are words filed in the database; no cut-off is given here.

Experiments:
[1] = test system: Bel-7402; assay: Cytotoxicity against Homo sapiens (human) Bel7402 cells at 10 uM by MTT assay; type: functional, cell-based
[2] = test system: BGC-823; assay: Cytotoxicity against Homo sapiens (human) BGC823 cells at 10 uM by MTT assay; type: functional, cell-based
[3] = test system: KB; assay: Cytotoxicity against Homo sapiens (human) KB cells at 10 uM by MTT assay; type: functional, cell-based
[4] = test system: HL-60; assay: Cytotoxicity against Homo sapiens (human) HL60 cells at 10 uM by MTT assay; type: functional, cell-based
[5] = test system: Helicoverpa armigera; assay: Insecticidal activity against Heliothis armigera larvae reared on artificial diet assessed as growth inhibition after 72 hr; type: functional, organism-based
[6] = test system: Spodoptera exigua; assay: Insecticidal activity against Spodoptera exigua larvae reared on artificial diet assessed as mortality rate at 73.63 ppm after 72 hr; type: functional
[7] = test system: Spodoptera exigua; assay: Insecticidal activity against Spodoptera exigua larvae reared on artificial diet assessed as mortality rate after 72 hr; type: functional; conditions: for LC50: Spodoptera exigua, 72 h
[8] = test system: Spodoptera exigua; assay: Insecticidal activity against Spodoptera exigua larvae reared on artificial diet assessed as mortality rate at 96.88 ppm after 72 hr; type: functional
[9] = test system: Spodoptera exigua; assay: Insecticidal activity against Spodoptera exigua larvae reared on artificial diet assessed as mortality rate at 56.19 ppm after 72 hr; type: functional
[10] = test system: Spodoptera exigua; assay: Insecticidal activity against Spodoptera exigua larvae reared on artificial diet assessed as mortality rate at 32 ppm after 72 hr; type: functional
[11] = test system: Spodoptera exigua; assay: Insecticidal activity against Spodoptera exigua larvae reared on artificial diet assessed as mortality rate at 42.63 ppm after 72 hr; type: functional
[12] = test system: Spodoptera exigua; assay: Insecticidal activity against Spodoptera exigua larvae reared on artificial diet assessed as mortality rate at 31.56 ppm after 72 hr; type: functional
[13] = test system: Spodoptera exigua; assay: Insecticidal activity against Spodoptera exigua larvae reared on artificial diet assessed as mortality rate at 55.64 ppm after 72 hr; type: functional
[14] = test system: Spodoptera exigua; assay: Insecticidal activity against Spodoptera exigua larvae reared on artificial diet assessed as mortality rate at 95.65 ppm after 72 hr; type: functional
[15] = test system: Spodoptera exigua; assay: Insecticidal activity against Spodoptera exigua larvae reared on artificial diet assessed as mortality rate at 72.68 ppm after 72 hr; type: functional
[16] = test system: Spodoptera exigua; assay: Insecticidal activity against Spodoptera exigua larvae reared on artificial diet assessed as mortality rate at 42.08 ppm after 72 hr; type: functional

Compound	Activity [1]	Activity [2]	Activity [3]	Activity [4]	growth inhibition (GI) [5]	mortality at 73.63 ppm [6] [%]	LC90 [7] [µg/mL]	LC50 [7] [µg/mL]	mortality at 96.88 ppm [8] [%]	mortality at 56.19 ppm [9] [%]	mortality at 32 ppm [10] [%]	mortality at 42.63 ppm [11] [%]	mortality at 31.56 ppm [12] [%]	mortality at 55.64 ppm [13] [%]	mortality at 95.65 ppm [14] [%]	mortality at 72.68 ppm [15] [%]	mortality at 42.08 ppm [16] [%]
C[C@@H]1CC[C@@]2(O)[C@@H]1[C@H]1O[C@@]3(O)C[C@]2(C)[C@@H]2[C@@H](O)[C@](O)(C(C)(C)O)[C@@]3(C)[C@]12O	inactive	inactive	inactive	inactive	inactive												
CC(CO[C@@H]1O[C@H](CO)[C@@H](O)[C@H](O)[C@H]1O)[C@@]1(O)[C@H](O)[C@@H]2[C@@]3(O)[C@@H]4O[C@@](O)(C[C@@]2(C)[C@@]2(O)CC[C@@H](C)[C@@H]42)[C@]31C (stereo partly specified)	inactive	inactive	inactive	inactive	inactive												
CC(C)[C@@]1(O)[C@H](O[C@@H]2O[C@H](CO)[C@@H](O)[C@H](O)[C@H]2O)[C@@H]2[C@@]3(O)[C@@H]4O[C@@](O)(C[C@@]2(C)[C@@]2(O)CC[C@@H](C)[C@@H]42)[C@]31C	inactive	inactive	inactive	inactive	inactive												
CC(C)[C@@]1(O)[C@H](O)[C@@H]2[C@@]3(O)[C@@H]4O[C@@](O)(C[C@@]2(C)[C@@]2(O)CC[C@@H](C)[C@@H]42)[C@]31C [ITOL A]	inactive	inactive	inactive	inactive	inactive	94	67.68 (≈ 184 µM)	28.6 (≈ 77.7 µM)	96	83	56	73					
CC(C)[C@@]1(O)[C@H](O)[C@@H]2[C@@]3(O)[C@@H]4O[C@@](O)(C[C@@]2(C)[C@@]2(O)CC[C@](C)(O)[C@@H]42)[C@]31C					inactive												
CC(CO)[C@@]1(O)[C@H](O)[C@@H]2[C@@]3(O)[C@@H]4O[C@@](O)(C[C@@]2(C)[C@@]2(O)CC[C@@H](C)[C@@H]42)[C@]31C (stereo partly specified) [ITOL B]					inactive		131.7 (≈ 343 µM)	52.8 (≈ 137 µM)					26	59	77	69	31
